Here are results for 8 compounds from patent US8735412B2, “Sulfoximine-substituted anilinopyrimidine derivatives as CDK inhibitors, the production thereof, and use as medicine” (Bayer Intellectual Property GmbH, priority 2008, dated 2014).

Structures are written as SMILES. Like-named read-outs stand apart in the source and are kept apart here.

One series has as its target T1, CDK1/CycB (Homo sapiens, UniProt P06493).
T1 construct: purchased ProQinase GmbH, Freiburg; host or cells: baculovirus-infected insect cells (Sf9)
In words: CDK1/CycB kinase assay (Assay 1). The settings on record: 0.5 μM ATP, histon IIIS substrate; read-out: CDK1/CycB (Assay 1) Concentration for 50% inhibition of enzyme activity, IC50. It is filed as biochemical. The procedure:
10.1 Assay 1: CDK1/CycB Kinase Assay
Recombinant CDK1 and CycB-GST fusion proteins, purified from baculovirus-infected insect cells (Sf9), were purchased from ProQinase GmbH, Freiburg. The histon IIIS used as kinase substrate is commercially available from the company Sigma.
(§1) CDK1/CycB (200 ng/measuring point) was incubated for 10 min at 22° C. in the presence of various concentrations of test substances (0 μM, and within the range 0.01-100 μM) in assay buffer [50 mM Tris/HCl pH8.0, 10 mM MgCl2, 0.1 mM Na ortho-vanadate, 1.0 mM dithiothreitol, 0.5 μM adenosine triphosphate (ATP), 10 μg/measuring point histon IIIS, 0.2 μCi/measuring point ^33P-gamma ATP, 0.05% NP40, 1.25% dimethylsulfoxide]. The reaction was stopped by adding EDTA solution (250 mM, pH8.0, 15 μl/measuring point).
(§2) From each reaction mixture, 15 μl was applied to P30 filter strips (from Wallac), and unincorporated ^33P-ATP was removed by washing the filter strips three times, for 10 min each time, in 0.5% phosphoric acid. After drying the filter strips for 1 hour at 70° C., the filter strips were covered with scintillator strips (MeltiLex™ A, from Wallac) and stoved for 1 hour at 90° C. The amount of incorporated ^33P (substrate phosphorylation) was determined by scintillation measurement in a gamma-radiation measuring instrument (Wallac). The measured data were standardized to 0% inhibition (enzyme reaction without inhibitor) and 100% inhibition (all assay components except enzyme). The IC50 values were determined by means of a 4-parameter fit using the company's own software.

In the next series the target is T2, CDK2/CycE (Homo sapiens, UniProt P24941).
T2 construct: purchased ProQinase GmbH, Freiburg; host or cells: baculovirus-infected insect cells (Sf9)
In words: CDK2/CycE kinase assay (Assay 2). It is filed as biochemical. The conditions noted are these: 0.5 μM ATP, histon IIIS substrate; read-out: CDK2/CycE (Assay 2) Concentration for 50% inhibition of enzyme activity, IC50. The protocol: 10.2 Assay 2: CDK2/CycE Kinase Assay
as §1, with “Recombinant CDK2 and CycE-GST fusion proteins, purified from baculovirus-infected insect cells (Sf9), were purchased from ProQinase GmbH, Freiburg. Histon IIIS, used as kinase substrate, was purchased from the company Sigma. CDK2/CycE (50” for “CDK1/CycB (200”
as §2

In series [1] the test system is HeLa-MaTu cervical carcinoma cells. In words: Proliferation assay (Assay 4), crystal violet staining. The conditions noted are these: Homo sapiens, 96 h, 4 days incubation; read-out: HeLa-MaTu (Assay 4) Concentration for 50% inhibition of cellular proliferation, IC50. It is filed as cell-based. The protocol:
10.4 Assay 4: Proliferation Assay
Cultivated human HeLa-MaTu cervical carcinoma cells (obtained from EPO-GmbH, Berlin) were plated at a density of 3000 cells/measuring point in a 96-well multititer is plate in 200 μl of growth medium (DMEM/HAMS F12, 2 mM L-glutamine, 10% fetal calf serum). After 24 hours the cells of one plate (zero-point plate) were stained with crystal violet (see below), whereas the medium of the other plates was replaced with fresh culture medium (200 μl), to which the test substances had been added at various concentrations (0 μM, and in the range 0.01-30 μM; the final concentration of the solvent dimethylsulfoxide was 0.5%). The cells were incubated for 4 days in the presence of the test substances. Cellular proliferation was determined by staining the cells with crystal violet: the cells were fixed by adding 20 μl/measuring point of an 11% glutaraldehyde solution for 15 min at room temperature. After washing the fixed cells with water three times, the plates were dried at room temperature. The cells were stained by adding 100 μl/measuring point of a 0.1% crystal violet solution (pH adjusted to pH3 by adding acetic acid). After washing the stained cells with water three times, the plates were dried at room temperature. The dye was dissolved by adding 100 μl/measuring point of a 10% acetic acid solution. The extinction was determined photometrically at a wavelength of 595 nm. The percentage change in cell growth was calculated by standardization of the measured values to the extinction values of the zero-point plate (=0%) and the extinction of the untreated (0 μM) cells (=100%). The measured data were standardized to 0% inhibition (cell proliferation without inhibitor) and 100% inhibition (zero-point plate). The IC50 values were determined by means of a 4-parameter fit using the company's own software.

Series [2] has as its system HeLa-MaTu human cervical carcinoma xenograft. The series can be described thus: HeLa-MaTu cervical tumor xenograft model on NMRI nude mice. It is filed as in vivo. The conditions noted are these: oral. The protocol: HeLa-MaTu (EPO-GmbH, Berlin) human cervical carcinoma cells, which were grown in cell culture, were implanted subcutaneously in the flank of female NMRI nude mice. […] The study was terminated as soon as the tumors in one of the groups reached a size of approx. 150 mm^2.
(§3) The growth-inhibiting effect of the compounds was tested in the HeLa-MaTu cervical tumor model as xenograft on NMRI nude mice. […] Treatment of the established tumors was begun on day 4 after inoculation of the tumors.
as §3, §3
The study was designed for determining the initial response of a human cervical carcinoma xenograft model to treatments with the 5-Br comparative substance V12. The growth-inhibiting effect of the compounds was tested in the HeLa-MaTu cervical tumor model as xenograft on NMRI nude mice. V12 was dissolved completely in the solubilizer 40% polyethylene glycol 400 (PEG 400)/60% water to a final concentration of 0.7 mg/ml (group 2), 0.85 mg/ml (group 3), or 1.0 mg/ml (group 4). Treatment of the established tumors was begun on day 4 after inoculation of the tumors.
HeLa-MaTu (EPO-GmbH, Berlin) human cervical carcinoma cells, which were grown in cell culture, were implanted subcutaneously in the flank of female NMRI nude mice. […] The study was terminated as soon as the tumors in one of the groups reached a size of approx. 160 mm^2.
(§4) The growth-inhibiting effect of the compounds was tested in the HeLa-MaTu cervical tumor model as xenograft on NMRI nude mice. […] Treatment of the established tumors was begun on day 5 after inoculation of the tumors.
as §4, §4
The following test groups were used: • Group 1: Control, treatment with solubilizer (40% PEG 400/60% water) • Group 2: Compound according to WO 2005/037800 prepared according to preparation V14 disclosed above • (6 mg/kg, oral, 2x daily on day 5, 6, 12, 13, 19, 20) • Group 3: Compound according to WO 2005/037800 prepared according to preparation V14 disclosed above • (8 mg/kg, oral, 2× daily on day 5, 6, 12, 13, 19, 20) • Group 4: Compound according to WO 2005/037800 prepared according to preparation V14 disclosed above • (10 mg/kg, oral, 2× daily on day 5, 6, 12, 13, 19, 20)
The study was designed for determining the initial response of a human cervical carcinoma xenograft model to treatments with the 5-Br comparative substance V14. The growth-inhibiting effect of the compounds was tested in the HeLa-MaTu cervical tumor model as xenograft on NMRI nude mice. V14 was dissolved completely in the solubilizer 40% polyethylene glycol 400 (PEG 400)/60% water to a final concentration of 0.6 mg/ml (group 2), 0.8 mg/ml (group 3), or 1.0 mg/ml (group 4). Treatment of the established tumors was begun on day 5 after inoculation of the tumors.

Setting [3] is: 2.5 mg/kg (group 4), 2x daily on day 5, 6, 12, 13, 19, 20, day 20.
The mark [4] stands for this setting: 1.5, 2.0, 2.5 mg/kg, 2x daily on day 5, 6, 12, 13, 19, 20.
Setting [5] is: Mus musculus, 480 h, 2.5 mg/kg (group 4), 2x daily on day 5, 6, 12, 13, 19, 20, day 20, read-out: treatment/control ratio T/C (tumor weight).

T1 sequence (P06493 whole entry): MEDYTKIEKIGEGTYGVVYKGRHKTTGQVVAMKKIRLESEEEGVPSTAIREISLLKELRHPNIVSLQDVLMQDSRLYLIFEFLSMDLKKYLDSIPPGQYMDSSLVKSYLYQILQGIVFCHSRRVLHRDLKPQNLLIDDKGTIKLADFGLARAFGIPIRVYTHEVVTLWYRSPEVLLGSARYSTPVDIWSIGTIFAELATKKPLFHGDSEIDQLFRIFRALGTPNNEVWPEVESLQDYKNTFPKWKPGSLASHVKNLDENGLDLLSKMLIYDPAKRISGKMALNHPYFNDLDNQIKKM
T1 sequence (P14635 whole entry partner): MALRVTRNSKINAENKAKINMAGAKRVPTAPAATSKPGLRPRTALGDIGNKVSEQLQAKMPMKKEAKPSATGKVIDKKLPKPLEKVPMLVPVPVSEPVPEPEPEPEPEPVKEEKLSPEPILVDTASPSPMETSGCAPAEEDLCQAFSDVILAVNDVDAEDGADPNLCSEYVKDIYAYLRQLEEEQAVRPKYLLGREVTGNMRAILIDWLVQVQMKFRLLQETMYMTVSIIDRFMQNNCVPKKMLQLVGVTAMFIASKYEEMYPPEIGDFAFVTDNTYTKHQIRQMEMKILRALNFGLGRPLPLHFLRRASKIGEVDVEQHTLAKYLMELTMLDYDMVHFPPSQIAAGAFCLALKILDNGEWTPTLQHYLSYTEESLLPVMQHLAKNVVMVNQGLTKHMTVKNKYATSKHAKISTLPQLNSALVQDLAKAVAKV

`C[C@@H](Nc1nc(Nc2ccc([S@](=N)(=O)C3CC3)cc2)ncc1Br)C(C)(C)O` [Example V11, (R)-S-[4-({5-bromo-4-[(R)-(2-hydroxy-1,2-dimethylpropyl)amino]pyrimidin-2-yl}amino)phenyl]-S-cyclopropyl-sulfoximide]: the IC50 at CDK1/CycB came to 8 nM; at CDK2/CycE it was 7 nM; in series [1], 13 nM. The “tolerability of the cyclic treatment regimen” value in series [2] (8 mg/kg, 2x daily on 2 successive days followed by 5 treatment-free days) is given as “well-tolerated”. Also, the “effect on tumor growth (in words)” value in series [2] (8 mg/kg, 2x daily on day 4, 5, 11, 12) was “inhibited tumor growth”. Moreover, the “reduction of tumor weight at the end of the study to % of the control group” value (shortened to “reduction … to % of the control group”) in series [2] (8 mg/kg, 2x daily on day 4, 5, 11, 12, day 17) turned out to be 39%. Besides, the response vs control in vivo at 8 mg/kg in series [2] (Mus musculus, 408 h, 8 mg/kg, 2x daily on day 4, 5, 11, 12, day 17, read-out: treatment/control ratio T/C (tumor weight)) is 39%.
As to `C[C@@H](Nc1nc(Nc2ccc(S(=N)(=O)C3CC3)cc2)ncc1C(F)(F)F)C(C)(C)O` (mixture of isomers) [Example 5-SI-2, (RS)-S-Cyclopropyl-S-(4-{[4-{[(R)-2-hydroxy-1,2-dimethylpropyl]amino}-5-(trifluoromethyl)pyrimidin-2-yl]amino}phenyl)sulfoximide], the “effect on tumor growth (in words)” value in series [2] (5 mg/kg, 2x daily on day 4, 5, 11, 12) was “greatly inhibited tumor growth”. The “reduction … to % of the control group” value in series [2] (5 mg/kg, 2x daily on day 4, 5, 11, 12, day 17) stood at 7%. Moreover, the response vs control in vivo at 5 mg/kg in series [2] (Mus musculus, 408 h, 5 mg/kg, 2x daily on day 4, 5, 11, 12, day 17, read-out: treatment/control ratio T/C (tumor weight)) came to 7%.
As for `CCS(=N)(=O)c1ccc(Nc2ncc(C(F)(F)F)c(N[C@H](C)[C@@H](C)O)n2)cc1` (mixture of isomers) [Example 6-SI-1, (RS)-S-Ethyl-S-(4-{[4-{[(1R,2R)-2-hydroxy-1-methylpropyl]amino}-5-(trifluoromethyl)pyrimidin-2-yl]amino}phenyl)sulfoximide], in series [1], the IC50 stood at 16 nM.
Consider `C[C@@H](Nc1nc(Nc2ccc(S(C)(=N)=O)cc2)ncc1C(F)(F)F)C(C)(C)O` (single isomer, unassigned) [Example 9-SI-1], for which the IC50 on CDK2/CycE stood at 5 nM.
As to `C[C@@H](O)[C@@H](C)Oc1nc(Nc2ccc(S(C)(=N)=O)cc2)ncc1C(F)(F)F` (mixture of isomers) [Example 2-SI-2, (RS)-S-(4-{[4-{[(1R,2R)-2-Hydroxy-1-methylpropyl]oxy}-5-(trifluoromethyl)pyrimidin-2-yl]amino}phenyl)-S-methylsulfoximide], in series [1], the IC50 was 8 nM. Also, the “reduction … to % of the control group” value in series [2] (setting [3]) turned out to be 18%. Also, the “effect on tumor growth (in words)” value in series [2] (setting [4]) is “dose-dependent inhibition of tumor growth”. The response vs control in vivo at 2.5 mg/kg in series [2] (setting [5]) worked out at 18%.
For `CCS(=N)(=O)c1ccc(Nc2ncc(C(F)(F)F)c(N[C@H](C)[C@@H](C)O)n2)cc1` (mixture of isomers) [Example 6-SI-2, (RS)-S-Ethyl-S-(4-{[4-{[(1R,2R)-2-hydroxy-1-methylpropyl]amino}-5-(trifluoromethyl)pyrimidin-2-yl]amino}phenyl)sulfoximide], in series [2] (5 mg/kg (group 4), 2x daily on day 4, 5, 11, 12, 17, 18, day 20), the “reduction … to % of the control group” value worked out at 8%. For the same compound, in series [2] (3, 4, 5 mg/kg, 2x daily on day 4, 5, 11, 12, 17, 18), the “effect on tumor growth (in words)” value is recorded as “dose-dependent inhibition of tumor growth”. The response vs control in vivo at 5 mg/kg in series [2] (Mus musculus, 480 h, 5 mg/kg (group 4), 2x daily on day 4, 5, 11, 12, 17, 18, day 20, read-out: treatment/control ratio T/C (tumor weight)) is 8%.
For `C[C@@H](O)[C@@H](C)Oc1nc(Nc2ccc(S(=N)(=O)C3CC3)cc2)ncc1C(F)(F)F` (mixture of isomers) [Example 1-SI-2, (RS)-S-Cyclopropyl-S-(4-{[4-{[(1R,2R)-2-hydroxy-1-methylpropyl]oxy}-5-(trifluoromethyl)pyrimidin-2-yl]amino}phenyl)sulfoximide], in series [2] (setting [3]), the “reduction … to % of the control group” value is on record as 19%. In addition, the “effect on tumor growth (in words)” value in series [2] (setting [4]) is on record as “dose-dependent inhibition of tumor growth”. Moreover, the response vs control in vivo at 2.5 mg/kg in series [2] (setting [5]) came to 19%.
`C[C@@H](Nc1nc(Nc2ccc(S(C)(=N)=O)cc2)ncc1C(F)(F)F)C(C)(C)O` (single isomer, unassigned) [Example 9-SI-2]: the IC50 on CDK2/CycE is 3 nM.
